# Laboratory results reported in patent publication US11053253B2, “Macrocyclic compounds for treatment of medical disorders” (Achillion Pharmaceuticals, Inc., priority 2017, dated 2021).
# Molecular target: Human Factor D (Homo sapiens (Human), UniProt P00746)
# Assay: Human Factor D Assay
# Assay type: biochemical
# Conditions: Human Factor D 80 nM, substrate Z-L-Lys-SBzl, DTNB, A405; read-out: IC50 (Stars)
# Method: Example 2. Human Factor D Assay
# Human Factor D (purified from human serum, Complement Technology, Inc.) at 80 nM final concentration is incubated with test compound at various concentrations for 5 min at room temperature in 50 mM Tris, 1M NaCl, pH 7.5. A synthetic substrate Z-L-Lys-SBzl and DTNB (Ellman's reagent) are added to final concentrations of 100 µM each. Absorbance at 405 nm (A405) is recorded at 30 second intervals for 30 minutes using a microplate spectrophotometer. IC50 values are calculated by nonlinear regression of Complement Factor D reaction rates as a function of test compound concentration.
# Sequence of Human Factor D (P00746 26-253): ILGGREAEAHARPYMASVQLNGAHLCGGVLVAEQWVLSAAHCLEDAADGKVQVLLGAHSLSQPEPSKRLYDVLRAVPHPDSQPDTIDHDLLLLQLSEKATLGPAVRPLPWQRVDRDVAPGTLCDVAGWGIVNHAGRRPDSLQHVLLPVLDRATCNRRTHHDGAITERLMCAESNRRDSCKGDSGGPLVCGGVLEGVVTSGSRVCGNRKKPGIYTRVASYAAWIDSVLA
row,SMILES,IC50 [nM]
1,CC(=O)c1nn(CC(=O)N2C[C@@]3(F)COCCCCCCc4ccc(Br)nc4NC(=O)[C@@H]2C3)c2cnc(-c3cnc(C)nc3)cc12 [Compound T-179],< 1000
2,CC(=O)c1nn2c3c(nc(-c4cnc(C)nc4)cc13)CCCCCCCOC[C@@]13C[C@@H](C(=O)Nc4nc(C(F)(F)F)ccc4C)N(C(=O)C2)[C@@H]1C3 [Compound T-163],< 1000
3,CC(=O)c1nn2c3c(cc(-c4cnc(C)nc4)cc13)CCCCCCC(=O)NC[C@@]13C[C@@H](C(=O)Nc4cc(C)c(F)c(Br)n4)N(C(=O)C2)[C@@H]1C3 [Compound T-218],< 1000
4,"CC(=O)c1nn(CC(=O)N2[C@H]3C[C@@]4(C=CCCCCN(C)C(=O)Cc5ccc(Br)nc5NC3=O)C[C@@H]24)c2ccc(-c3cnc(C)nc3)cc12 [Compound T-19, (41R,43S,45R)-42-(2-(3-acetyl-5-(2-methylpyrimidin-5-yl)-1H-indazol-1-yl)acetyl)-16-bromo-11-methyl-42,2,11-triaza-1(2,3)-pyridina-4(3,5)-bicyclo[3.1.0]hexanacyclotridecaphan-5-ene-3,12-dione]",< 1000
5,CC(=O)c1nn2c3c(cc(-c4cnc(C)nc4)cc13)CCCCCCC(=O)NC[C@@]13C[C@@H](C(=O)N[C@H](C)CC(C)(C)C)N(C(=O)C2)[C@@H]1C3 [Compound T-231],< 1000
6,CC(=O)c1nn2c3c(cc(-c4cnc(C)nc4)cc13)CCCCC[C@H](C)C(=O)N(C)C[C@@]13C[C@@H](C(=O)Nc4nc(C(F)(F)F)ccc4C)N(C(=O)C2)[C@@H]1C3 [Compound T-244],< 1000
7,CC(=O)c1nn2c3c(cc(-c4cnc(C)nc4)cc13)COCC=CC(F)(F)C(=O)NC[C@@]13C[C@@H](C(=O)Nc4nc(C(F)(F)F)ccc4C)N(C(=O)C2)[C@@H]1C3 [Compound T-138],< 1000
8,CC(=O)c1nn2c3c(cc(-c4cnc(C)nc4)cc13)CCCCCCCc1cccc(n1)OC[C@@]13C[C@@H](C(=O)Nc4nc(Br)ccc4C)N(C(=O)C2)[C@@H]1C3 [Compound T-139],< 1000
9,CC(=O)c1nn(CC(=O)N2[C@H]3C[C@]4(C[C@@H]24)Cn2ccc(n2)/C=C\COCc2ccc(Br)nc2NC3=O)c2ccc(-c3cnc(C)nc3)cc12 [Compound T-69],< 1000
10,CC(=O)c1nn2c3c(cc(-c4cnc(C)nc4)cc13)CCCCCCC(=O)NC[C@@]13C[C@@H](C(=O)NCC(C)(C)C)N(C(=O)C2)[C@@H]1C3 [Compound T-201],< 1000
11,CC(=O)c1nn2c3c(cc(-c4cnc(C)nc4)cc13)CCCCCCC(=O)NC[C@@]1(F)C[C@@H](C(=O)Nc3nc(C(F)(F)F)ccc3C)N(C1)C(=O)C2 [Compound T-168],< 1000
12,CC(=O)c1nn2c3c(cc(-c4cnc(C)nc4)cc13)CCCCCCC(=O)NC[C@@]13C[C@@H](C(=O)N[C@@H](C)COC(F)(F)F)N(C(=O)C2)[C@@H]1C3 [Compound T-206],< 1000
13,CC(=O)c1nn(CC(=O)N2[C@H]3C[C@]4(C[C@@H]24)CN(C)CCCC=CCc2ccc(Br)nc2NC3=O)c2ccc(-c3cnc(C)nc3)cc12 [Compound T-65],< 1000
14,CC(=O)c1nn2c3c(cc(-c4cnc(C)nc4)cc13)CCCCCCCOC[C@@]13C[C@@H](C(=O)Nc4nc(Br)ccc4C)N(C(=O)C2)[C@@H]1C3 [Compound T-108],< 1000
15,CC(=O)c1nn2c3c(cc(-c4cnc(C)nc4)cc13)CCCCCC(C)(C)C(=O)N(C)C[C@@]13C[C@@H](C(=O)Nc4ccn(CC(F)(F)F)n4)N(C(=O)C2)[C@@H]1C3 [Compound T-191],< 1000
16,CC(=O)c1nn(CC(=O)N2[C@H]3C[C@@]4(CNC(=O)C(C)(C)CCCOCc5ccc(Br)nc5NC3=O)C[C@@H]24)c2cnc(-c3cnc(C)nc3)cc12 [Compound T-116],< 1000
17,Cc1ncc(-c2cc(CF)c3c(c2)c(C=O)nn3CC(=O)N2[C@H]3C[C@]4(C[C@@H]24)CN(C)CCCCCCCc2ccc(Br)nc2NC3=O)cn1 [Compound T-74],< 1000
18,CC(=O)c1nn2c3c(cc(-c4cnc(C)nc4)cc13)CC=CCCCC(=O)NC[C@@]13C[C@@H](C(=O)Nc4nc(Br)c(F)cc4C)N(C(=O)C2)[C@@H]1C3 [Compound T-84],< 1000
19,CC(=O)c1nn(CC(=O)N2[C@H]3C[C@@]4(COc5cccc(n5)CCCCCCCc5ccc(Br)nc5NC3=O)C[C@@H]24)c2ccc(-c3cnc(C)nc3)cc12 [Compound T-165],< 1000
20,COc1cc(Br)nc(NC(=O)[C@@H]2C[C@]34CNC(=O)CCCCCCc5cc(-c6cnc(C)nc6)cc6c(C(C)=O)nn(c56)CC(=O)N2[C@@H]3C4)c1 [Compound T-210],< 1000
21,CC(=O)c1nn(CC(=O)N2[C@H]3C[C@@]4(C=CCCC5=NN=C(Cc6ccc(Br)nc6NC3=O)O5)C[C@@H]24)c2cnc(-c3cnc(C)nc3)cc12 [Compound T-47],< 1000
22,CC(=O)c1nn(CC(=O)N2[C@H]3C[C@]4(C[C@@H]24)CN(C)CCCCCCCc2ccc(Br)nc2NC3=O)c2ccc(-c3cnc(C)nc3)cc12 [Compound T-110],< 1000
23,COc1cc(Br)nc(NC(=O)[C@@H]2C[C@]34CNC(=O)CCCC=CCc5cc(-c6cnc(C)nc6)cc6c(C(C)=O)nn(c56)CC(=O)N2[C@@H]3C4)c1 [Compound T-209],< 1000

row,SMILES,IC50 [nM]
1,CC(=O)c1nn(CC(=O)N2[C@H]3C[C@]4(C[C@@H]24)CN(C)CCCCCCCc2ccc(Br)nc2NC3=O)c2cnc(-c3cnc(C)nc3)cc12 [Compound T-75],< 1000
2,CC(=O)c1nn2c3c(cc(-c4cnc(C)nc4)cc13)CCCCCCC(=O)NC[C@@]13C[C@@H](C(=O)Nc4nc(Br)ccc4C4CC4)N(C(=O)C2)[C@@H]1C3 [Compound T-212],< 1000
3,CC(=O)c1nn2c3c(cc(-c4cnc5ccnn5c4)cc13)CCCCCCC(=O)NC[C@@]13C[C@@H](C(=O)Nc4nc(C(F)(F)F)ccc4C)N(C(=O)C2)[C@@H]1C3 [Compound T-255],< 1000
4,CC(=O)c1nn(CC(=O)N2[C@H]3C[C@@]4(CNC(=O)C(C)(C)C=CCOCc5ccc(Br)nc5NC3=O)C[C@@H]24)c2ccc(-c3cnc(C)nc3)cc12 [Compound T-131],< 1000
5,CC(=O)c1nn(CC(=O)N2[C@H]3C[C@]4(C[C@@H]24)CN(C)CCCCCCc2ccc(Br)nc2NC3=O)c2c(C)cc(-c3cnc(C)nc3)cc12 [Compound T-72],< 1000
6,CC(=O)c1nn(CC(=O)N2[C@H]3C[C@@]4(CCCC=CCOCc5ccc(Br)nc5NC3=O)C[C@@H]24)c2c(CF)cc(-c3cnc(C)nc3)cc12 [Compound T-89],< 1000
7,CC(=O)c1nn2c3c(nc(-c4cnc(C)nc4)cc13)CCCCCCC(=O)NC[C@@]13C[C@@H](C(=O)Nc4nc(C(F)(F)F)ccc4C)N(C(=O)C2)[C@@H]1C3 [Compound T-132],< 1000
8,CC(=O)c1nn2c3c(cc(-c4cnc(C)nc4)cc13)CCCCCCC(=O)NC[C@@]13C[C@@H](C(=O)Nc4cc(Br)ccc4F)N(C(=O)C2)[C@@H]1C3 [Compound T-230],< 1000
9,CC(=O)c1nn(CC(=O)N2[C@H]3C[C@@]4(C=CCCCCCN(C)Cc5ccc(Br)nc5NC3=O)C[C@@H]24)c2c(CF)cc(-c3cnc(C)nc3)cc12 [Compound T-59],< 1000
10,CC(=O)c1nn2c3c(cc(-c4cnc(C)nc4)cc13)CCCCCCC(=O)NC[C@@]13C[C@@H](C(=O)NCCC(C)(C)C)N(C(=O)C2)[C@@H]1C3 [Compound T-177],< 1000
11,CC(=O)c1nn(CC(=O)N2[C@H]3C[C@@]4(COCCCCCCCc5ccc(Br)nc5NC3=O)C[C@@H]24)c2ccc(-c3cnc(C)nc3)cc12 [Compound T-40],< 1000
12,CC(=O)c1nn(CC(=O)N2[C@H]3C[C@@]4(COCC=CCOCc5ccc(Br)nc5NC3=O)C[C@@H]24)c2c(C)nc(-c3cnc(C)nc3)cc12 [Compound T-193],< 1000
13,CC(=O)c1nn2c3c(cc(-c4cnc(C)nc4)cc13)CCCCCCC(=O)N(C)C[C@@]13C[C@@H](C(=O)Nc4ccn(CC(F)(F)F)n4)N(C(=O)C2)[C@@H]1C3 [Compound T-203],< 1000
14,CC(=O)c1nn(CC(=O)N2[C@H]3C[C@]4(C[C@@H]24)CN2CCN(CCCOCc4ccc(Br)nc4NC3=O)CC2)c2ccc(-c3cnc(C)nc3)cc12 [Compound T-123],1000 to 10000
15,CCCCCNC(=O)[C@@H]1C[C@]23CNC(=O)CCCCCCc4cc(-c5cnc(C)nc5)cc5c(C(C)=O)nn(c45)CC(=O)N1[C@@H]2C3 [Compound T-200],< 1000
16,CC(=O)c1nn(CC(=O)N2[C@H]3C[C@@]4(Cc5nc(no5)C=CCOCc5ccc(Br)nc5NC3=O)C[C@@H]24)c2c(C)cc(-c3cnc(C)nc3)cc12 [Compound T-113],< 1000
17,CC(=O)c1nn2c3c(cc(-c4cnc(C)nc4)cc13)CCCCCCC(=O)NC[C@@]13C[C@@H](C(=O)Nc4nc(C#N)ccc4C)N(C(=O)C2)[C@@H]1C3 [Compound T-221],< 1000
18,CC(=O)c1nn2c3c(cc(-c4cnc(C)nc4)cc13)CCCCCCC=Cc1cn(nn1)C[C@@]13C[C@@H](C(=O)Nc4nc(Br)ccc4C)N(C(=O)C2)[C@@H]1C3 [Compound T-49],< 1000
19,CC(=O)c1nn(CC(=O)N2[C@H]3C[C@@]4(C=CCCCCCCc5ccc(Br)nc5NC3=O)C[C@@H]24)c2ccc(-c3cnc(C)nc3)cc12 [Compound T-48],< 1000
20,CC(=O)c1nn(CC(=O)N2[C@H]3C[C@@]4(CNC(=O)C(C)(C)CCCOCc5ccc(C(F)(F)F)nc5NC3=O)C[C@@H]24)c2ccc(-c3cnc(C)nc3)cc12 [Compound T-236],< 1000
21,"CC(=O)c1nn2c3c(cc(-c4cnc(C)nc4)cc13)CCC=CCCCC(=O)NC[C@@]13C[C@@H](C(=O)Nc4nc(Br)ccc4C)N(C(=O)C2)[C@@H]1C3 [Compound T-20, (41R,43S,45R)-13-acetyl-N-(6-bromo-3-methylpyridin-2-yl)-15-(2-methylpyrimidin-5-yl)-3,7-dioxo-11H-42,6-diaza-1(1,7)-indazola-4(2,5)-bicyclo[3.1.0]hexanacyclotetradecaphan-11-ene-43-carboxamide]",< 1000
22,CC(=O)c1nn2c3c(cc(-c4cnc(C)nc4)cc13)CCCCCCC(=O)NC[C@@]13C[C@@H](C(=O)N[C@@H](C)c4cccc(Cl)c4F)N(C(=O)C2)[C@@H]1C3 [Compound T-232],< 1000
